# From US5965524A, “Analogs of viscosin and uses thereof” (Peptide Technologies Corporation, priority 1994, dated 1999)
# Like-named read-outs stand apart in the source and are kept apart here.
# Assays:
# [1] = tested on: Herpes Simplex Virus 2 (HSV-2); assay: Inhibition of HSV-2 growth in cultured cells; assay type: cell-based; conditions: lowest concentration at which 50% of the viruses are rendered noninfective
# From the text: Particularly preferred host cells are rabbit skin cells or Vero cells. […] Acyclovir, a known antiherpesviral agent (Douglas, R., Chapter 51 in Goodman and Gilman's the Pharmacological Basis of Therapeutics, 8th Ed., G. Gilman et al., eds., Pergamon Press, New York (1980)), was used as a positive control.
# [2] = Cell toxicity in the HSV-2 assay
# From the text: (Davis, B., Chapter 55 in Microbiology, Including Immunology and Molecular Genetics, 3rd Ed., Harper & Row, Philadelphia (1980), p. 1064). Particularly preferred host cells are rabbit skin cells or Vero cells. (Grammer, S., et al., J. Immunol. 145:2249-2253 (1990); Gao, W., et al., J. Biol. Chem. 265:20172-20178 (1990)). […] (See, e.g., Groupe, V., et al., Proc. Soc. Exptl. Biol. Med. 78:354-358 (1951); Mitsuya, H., et al., Science 226:172-174 (1984)). Acyclovir, a known antiherpesviral agent (Douglas, R., Chapter 51 in Goodman and Gilman's the Pharmacological Basis of Therapeutics, 8th Ed., G. Gilman et al., eds., Pergamon Press, New York (1980)), was used as a positive control.
# [3] = tested on: Leishmania donovani; assay: Lysis of L. donovani parasites; assay type: cell-based; conditions: parasites 1x10^8 per mL in HBSS; examined at 4 hr and after overnight at 27° C.
# [4] = tested on: Leishmania donovani; assay: Effect on growth of L. donovani in serum-containing and serum-free medium; assay type: cell-based; conditions: cell densities at 21 hr, in some cases 43 hr, 27° C.; for Lowest concentration with activity against L. Donovani: Growth: serum-containing M199 medium; for Lowest concentration with activity against L. Donovani: Growth (Serum Free Medium): serum-free REIII medium
# Protocol: For the purpose of determining the effect of the compounds on the growth of parasite in serum-containing and serum-free medium, the parasites were harvested from culture medium M199+5% FBS, washed twice in HBSS and resuspended in same at 1×10^8 /mL. Serum-containing M199 ans serum-free REIII media were filtered and sterilized prior to use. The washed cells were added to achieve an initial concentration of 1.66×10^6 cells/mL. Cell densities were determined by hemacytometry at 21 hr, and in some cases at 43 hr of incubation at 27° C.
compound,measurement,setting,value
"Nc1nc2c(ncn2COCCO)c(=O)[nH]1 [Acyclovir, reference compound]",HSV-2 LD50,[1],0.6 to 1.5 µg/mL
"CCCCCCC[C@@H](O)CC(=O)N[C@@H](CC(C)C)C(=O)N[C@H](CCC(=O)O)C(=O)N[C@@H](C(=O)N[C@@H](C(=O)N[C@@H](CC(C)C)C(=O)N[C@H](CO)C(=O)N[C@@H](CC(C)C)C(=O)N[C@H](CO)C(=O)N[C@H](C(=O)O)[C@@H](C)CC)C(C)C)[C@@H](C)O [Compound 5, Viscosic Acid]",Cell Toxicity,[2]; host cells of the HSV-2 assay,> 100 µg/mL
"CCCCCCC[C@@H](O)CC(=O)N[C@@H](CC(C)C)C(=O)N[C@H](CCC(=O)O)C(N)=O [Compound 7, D-3-Hydroxydecanoyl-L-Leu-D-Glu-Amide]",Lowest concentration with activity against L. Donovani: Lysis,[3],no effect
same,Cell Toxicity,[2],> 100 µg/mL
same,HSV-2 LD50,[1],> 100 µg/mL
same,Lowest concentration with activity against L. Donovani: Growth,[4],no effect
same,Lowest concentration with activity against L. Donovani: Growth (Serum Free Medium),[4],no effect
"CCCCCCC[C@@H](O)CC(=O)N[C@@H](CC(C)C)C(=O)N[C@H](CCC(=O)OCc1ccccc1)C(=O)Nc1ccc2c(c1)OCCOCCOCCOCCO2 [Compound 10, 15-[[N-[N-[D-3-Hydroxydecanoyl]-L-Leucyl]-O-(phenylmethyl)-D-glutamyl]amino]-2,3,5,6,8,9,11,12-octahydro-1,4,7,10,13-benzopentaoxacyclopentadecin]",Lowest concentration with activity against L. Donovani: Lysis,[3],30 mg/mL
same,Cell Toxicity,[2],> 100 µg/mL
same,HSV-2 LD50,[1],> 100 µg/mL
same,Lowest concentration with activity against L. Donovani: Growth,[4],100 mg/mL
same,Lowest concentration with activity against L. Donovani: Growth (Serum Free Medium),[4],100 mg/mL
"CCCCCCC[C@@H](O)CC(=O)N[C@@H](CC(C)C)C(=O)N[C@H](CCC(=O)O)C(=O)Nc1ccc2c(c1)OCCOCCOCCOCCO2 [Compound 11, 15-[[N-[N-[D-3-Hydroxydecanoyl]-L-Leucyl]-D-glutamyl]amino]-2,3,5,6,8,9,11,12-octahydro-1,4,7,10,13-benzopentaoxacyclopentadecin]",Lowest concentration with activity against L. Donovani: Lysis,[3],no effect
same,Cell Toxicity,[2],> 100 µg/mL
same,HSV-2 LD50,[1],> 100 µg/mL
same,Lowest concentration with activity against L. Donovani: Growth,[4],no effect
same,Lowest concentration with activity against L. Donovani: Growth (Serum Free Medium),[4],no effect
"CCCCCCCCCC(=O)N[C@@H](CC(C)C)C(=O)N[C@H](CCC(=O)OCc1ccccc1)C(=O)Nc1ccc2c(c1)OCCOCCOCCOCCO2 [Compound 12, 15-[[N-[N-[Decanoyl]-L-Leucyl]-O-(phenylmethyl)-D-glutamyl]amino]-2,3,5,6,8,9,11,12-octahydro-1,4,7,10,13-benzopentaoxacyclopentadecin]",Lowest concentration with activity against L. Donovani: Lysis,[3],100 mg/mL
same,Cell Toxicity,[2],100 µg/mL
same,HSV-2 LD50,[1],> 50 µg/mL
same,Lowest concentration with activity against L. Donovani: Growth,[4],no effect
same,Lowest concentration with activity against L. Donovani: Growth (Serum Free Medium),[4],no effect
"CCCCCCCCCC(=O)N[C@@H](CC(C)C)C(=O)N[C@H](CCC(=O)O)C(=O)Nc1ccc2c(c1)OCCOCCOCCOCCO2 [Compound 13, 15-[[N-[N-[Decanoyl]-L-Leucyl]-D-glutamyl]amino]-2,3,5,6,8,9,11,12-octahydro-1,4,7,10,13-benzopentaoxacyclopentadecin]",Lowest concentration with activity against L. Donovani: Lysis,[3],no effect
same,Cell Toxicity,[2],> 100 µg/mL
same,HSV-2 LD50,[1],> 100 µg/mL
same,Lowest concentration with activity against L. Donovani: Growth,[4],no effect
same,Lowest concentration with activity against L. Donovani: Growth (Serum Free Medium),[4],no effect
CCCCCCCCCCCCCCC(CCC(=O)OCc1ccccc1)C(=O)Nc1ccc2c(c1)OCCOCCOCCOCCO2 (stereo not shown) [Compound 14],Lowest concentration with activity against L. Donovani: Lysis,[3],30 mg/mL
same,Cell Toxicity,[2],100 µg/mL
same,HSV-2 LD50,[1],> 33 µg/mL
same,Lowest concentration with activity against L. Donovani: Growth,[4],100 mg/mL
same,Lowest concentration with activity against L. Donovani: Growth (Serum Free Medium),[4],10 mg/mL
CCCCCCCCCCCCCCC(CCC(=O)O)C(=O)Nc1ccc2c(c1)OCCOCCOCCOCCO2 (stereo not shown) [Compound 15],Lowest concentration with activity against L. Donovani: Lysis,[3],30 mg/mL
same,Cell Toxicity,[2],33 µg/mL
same,HSV-2 LD50,[1],11 µg/mL
same,Lowest concentration with activity against L. Donovani: Growth,[4],30 mg/mL
same,Lowest concentration with activity against L. Donovani: Growth (Serum Free Medium),[4],10 mg/mL
CC(=O)Nc1ccc2c(c1)OCCOCCOCCOCCO2 [Compound 16],Cell Toxicity,[2],> 100 µg/mL
same,HSV-2 LD50,[1],> 100 µg/mL
"CCCCCCCCCCCCCCCCCC(=O)c1ccc2c(c1)OCCOCCOCCOCCO2 [Compound 42, Octadecanoyl benzo-15-Crown-5-ether]",Cell Toxicity,[2],> 100 µg/mL
same,HSV-2 LD50,[1],> 100 µg/mL
Deshydroxy Viscosin [Compound 3],HSV-2 LD50,[1],19 to 28 µg/mL
Octadecanoyl Viscosin [Compound 4],HSV-2 LD50,[1],> 100 µg/mL
